Common to all, as to test: pIC50, kinobeads binding competition
Assay [1] has as its target UniProt Q00536. Put shortly: (§1)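 pIC50 was obtained by fitting fold changes against vehicle to logistic dose-response curves with the R drc package, using biological duplicates. Kinobeads-bound proteins were digested and measured by TMT10 LC-MS/MS. Before this, either living Jurkat cells received nine compound concentrations (top 30 μM, 1:4 steps) for 60 min at 37 °C prior to lysis, or Jurkat lysate or a 1:1:1:1 HEK293/K-562/HepG2/placenta lysate mix received nine concentrations (top 30 μM, 1:5 steps) for 60 min at 4 °C.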

Assay [2] concerns the target PIM2 (UniProt Q9P1W9). Put shortly: as §1
The target of assay [3] is T1, NEK3 (UniProt P51956).
T1 sequence (whole entry): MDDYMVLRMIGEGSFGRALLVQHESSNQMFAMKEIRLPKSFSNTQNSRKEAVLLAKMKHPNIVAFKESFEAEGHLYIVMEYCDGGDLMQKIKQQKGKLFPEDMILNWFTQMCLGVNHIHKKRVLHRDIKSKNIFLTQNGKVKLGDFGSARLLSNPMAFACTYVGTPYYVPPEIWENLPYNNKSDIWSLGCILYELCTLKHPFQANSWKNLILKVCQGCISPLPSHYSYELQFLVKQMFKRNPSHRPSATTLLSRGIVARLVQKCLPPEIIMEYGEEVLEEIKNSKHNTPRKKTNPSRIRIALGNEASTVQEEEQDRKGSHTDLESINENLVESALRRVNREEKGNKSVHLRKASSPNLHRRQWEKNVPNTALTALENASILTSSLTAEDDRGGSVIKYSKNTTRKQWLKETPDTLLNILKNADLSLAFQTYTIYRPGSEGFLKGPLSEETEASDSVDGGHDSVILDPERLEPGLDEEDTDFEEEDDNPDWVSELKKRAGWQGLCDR
In a few lines: as §1

In assay [4] the target is UniProt Q05655. Put shortly:
as §1

The target of assay [5] is T2, UniProt O43318.
T2 sequence (whole entry): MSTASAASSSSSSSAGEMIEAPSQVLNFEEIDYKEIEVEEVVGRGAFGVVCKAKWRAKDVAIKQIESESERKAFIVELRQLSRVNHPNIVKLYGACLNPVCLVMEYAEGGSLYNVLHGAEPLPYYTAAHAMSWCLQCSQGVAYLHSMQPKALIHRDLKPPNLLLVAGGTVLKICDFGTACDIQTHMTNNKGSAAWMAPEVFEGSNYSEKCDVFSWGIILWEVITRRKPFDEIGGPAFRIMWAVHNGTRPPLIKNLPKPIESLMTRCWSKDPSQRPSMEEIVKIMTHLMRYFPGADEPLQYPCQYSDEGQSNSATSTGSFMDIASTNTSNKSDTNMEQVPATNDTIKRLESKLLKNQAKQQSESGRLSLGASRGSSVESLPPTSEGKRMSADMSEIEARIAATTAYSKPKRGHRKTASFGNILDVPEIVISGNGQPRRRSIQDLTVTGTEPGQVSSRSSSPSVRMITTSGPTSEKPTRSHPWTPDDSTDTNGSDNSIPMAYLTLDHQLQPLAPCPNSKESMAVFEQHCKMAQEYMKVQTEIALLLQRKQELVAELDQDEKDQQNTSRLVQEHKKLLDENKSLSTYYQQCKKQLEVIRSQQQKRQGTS
Put shortly:
as §1

The target of assay [6] is UniProt Q5TCX8. Put shortly: as §1
Assay [7] addresses MYLK (UniProt Q15746). Particulars: cell material: Lysate mix. In a few lines:
as §1

For assay [8], the target named is FGR (UniProt P09769). Put shortly: as §1
FGR, sequence (P09769 whole entry, looked up): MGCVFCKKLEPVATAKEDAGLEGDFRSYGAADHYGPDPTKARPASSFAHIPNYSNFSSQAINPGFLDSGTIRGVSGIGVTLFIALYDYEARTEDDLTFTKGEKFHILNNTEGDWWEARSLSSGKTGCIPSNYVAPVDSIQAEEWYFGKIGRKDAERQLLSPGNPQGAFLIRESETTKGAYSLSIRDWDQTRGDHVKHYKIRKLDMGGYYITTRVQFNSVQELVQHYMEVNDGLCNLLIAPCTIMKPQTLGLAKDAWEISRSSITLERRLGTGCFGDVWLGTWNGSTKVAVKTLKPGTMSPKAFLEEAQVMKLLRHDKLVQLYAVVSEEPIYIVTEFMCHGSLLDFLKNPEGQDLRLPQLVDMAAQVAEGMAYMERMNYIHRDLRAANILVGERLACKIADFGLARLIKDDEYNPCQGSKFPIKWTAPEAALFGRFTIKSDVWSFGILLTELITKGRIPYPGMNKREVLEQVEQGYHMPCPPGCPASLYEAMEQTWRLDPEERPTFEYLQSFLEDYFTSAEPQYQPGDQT
Assay [9] has as its target T3, ULK3 (UniProt Q6PHR2).
T3 sequence (whole entry): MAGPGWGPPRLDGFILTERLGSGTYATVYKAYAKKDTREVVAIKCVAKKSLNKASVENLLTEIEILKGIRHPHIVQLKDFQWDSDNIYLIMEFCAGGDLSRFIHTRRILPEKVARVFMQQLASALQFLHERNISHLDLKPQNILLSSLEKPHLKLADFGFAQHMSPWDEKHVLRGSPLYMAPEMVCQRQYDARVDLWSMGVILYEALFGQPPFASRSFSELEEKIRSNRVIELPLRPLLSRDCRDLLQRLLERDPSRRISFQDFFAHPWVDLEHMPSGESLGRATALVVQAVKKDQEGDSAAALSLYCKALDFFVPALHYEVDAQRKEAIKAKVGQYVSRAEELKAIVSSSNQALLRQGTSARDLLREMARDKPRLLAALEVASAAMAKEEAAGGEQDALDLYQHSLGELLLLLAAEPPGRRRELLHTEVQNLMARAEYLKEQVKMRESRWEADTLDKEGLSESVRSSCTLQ
In a few lines: as §1

For assay [10], the target named is MARK1 (UniProt Q9P0L2). To be noted: cell material: Lysate mix. Put shortly: as §1
MARK1, sequence (Q9P0L2 whole entry, looked up): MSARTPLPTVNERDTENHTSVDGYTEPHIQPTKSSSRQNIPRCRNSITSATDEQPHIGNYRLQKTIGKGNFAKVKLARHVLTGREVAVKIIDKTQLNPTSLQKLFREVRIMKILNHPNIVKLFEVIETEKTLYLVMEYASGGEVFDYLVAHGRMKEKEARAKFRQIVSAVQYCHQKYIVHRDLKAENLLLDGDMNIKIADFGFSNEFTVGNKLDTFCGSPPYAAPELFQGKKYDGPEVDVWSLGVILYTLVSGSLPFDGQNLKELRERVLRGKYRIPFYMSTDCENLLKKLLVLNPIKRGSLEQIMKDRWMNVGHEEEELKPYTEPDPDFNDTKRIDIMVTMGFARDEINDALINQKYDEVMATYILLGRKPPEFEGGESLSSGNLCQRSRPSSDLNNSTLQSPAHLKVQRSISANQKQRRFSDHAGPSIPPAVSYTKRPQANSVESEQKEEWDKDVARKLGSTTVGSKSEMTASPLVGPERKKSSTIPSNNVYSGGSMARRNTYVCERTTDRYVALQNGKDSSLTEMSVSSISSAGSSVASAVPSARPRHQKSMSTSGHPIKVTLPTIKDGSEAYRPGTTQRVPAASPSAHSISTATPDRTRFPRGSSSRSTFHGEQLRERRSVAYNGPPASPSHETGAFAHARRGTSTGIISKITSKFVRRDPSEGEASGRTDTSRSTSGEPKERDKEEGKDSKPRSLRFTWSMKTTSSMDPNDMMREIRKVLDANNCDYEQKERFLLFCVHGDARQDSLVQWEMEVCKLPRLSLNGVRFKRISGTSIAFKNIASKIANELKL
Assay [11] addresses UniProt P06493. Put shortly:
as §1

The target in assay [12] is UniProt P36507. In a few lines: as §1
UniProt P36507, sequence (P36507 whole entry): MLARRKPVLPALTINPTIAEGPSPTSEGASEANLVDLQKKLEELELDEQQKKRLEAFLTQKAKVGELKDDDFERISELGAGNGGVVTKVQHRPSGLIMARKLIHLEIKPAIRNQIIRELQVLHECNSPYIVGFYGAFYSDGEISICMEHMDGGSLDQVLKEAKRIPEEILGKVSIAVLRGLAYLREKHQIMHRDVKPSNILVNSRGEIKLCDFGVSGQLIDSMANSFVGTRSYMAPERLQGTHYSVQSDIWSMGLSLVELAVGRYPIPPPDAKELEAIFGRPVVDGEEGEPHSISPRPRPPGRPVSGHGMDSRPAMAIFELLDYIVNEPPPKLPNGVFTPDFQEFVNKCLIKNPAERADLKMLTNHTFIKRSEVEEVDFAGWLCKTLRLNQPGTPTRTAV

What is called pIC50 is the negative decadic logarithm of the IC50, by convention in mol/L. A lower pIC50 goes with a large IC50.

UniProt P06493, sequence (P06493 whole entry, looked up): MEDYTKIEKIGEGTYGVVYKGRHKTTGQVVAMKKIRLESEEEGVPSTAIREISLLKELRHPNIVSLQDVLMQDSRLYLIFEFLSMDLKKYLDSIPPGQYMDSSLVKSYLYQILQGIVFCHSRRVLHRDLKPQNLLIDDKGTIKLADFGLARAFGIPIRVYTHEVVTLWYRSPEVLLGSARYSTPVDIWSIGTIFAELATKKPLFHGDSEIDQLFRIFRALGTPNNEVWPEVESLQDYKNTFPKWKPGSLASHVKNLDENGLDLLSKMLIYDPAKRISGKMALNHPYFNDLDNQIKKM
MYLK, sequence (Q15746 whole entry): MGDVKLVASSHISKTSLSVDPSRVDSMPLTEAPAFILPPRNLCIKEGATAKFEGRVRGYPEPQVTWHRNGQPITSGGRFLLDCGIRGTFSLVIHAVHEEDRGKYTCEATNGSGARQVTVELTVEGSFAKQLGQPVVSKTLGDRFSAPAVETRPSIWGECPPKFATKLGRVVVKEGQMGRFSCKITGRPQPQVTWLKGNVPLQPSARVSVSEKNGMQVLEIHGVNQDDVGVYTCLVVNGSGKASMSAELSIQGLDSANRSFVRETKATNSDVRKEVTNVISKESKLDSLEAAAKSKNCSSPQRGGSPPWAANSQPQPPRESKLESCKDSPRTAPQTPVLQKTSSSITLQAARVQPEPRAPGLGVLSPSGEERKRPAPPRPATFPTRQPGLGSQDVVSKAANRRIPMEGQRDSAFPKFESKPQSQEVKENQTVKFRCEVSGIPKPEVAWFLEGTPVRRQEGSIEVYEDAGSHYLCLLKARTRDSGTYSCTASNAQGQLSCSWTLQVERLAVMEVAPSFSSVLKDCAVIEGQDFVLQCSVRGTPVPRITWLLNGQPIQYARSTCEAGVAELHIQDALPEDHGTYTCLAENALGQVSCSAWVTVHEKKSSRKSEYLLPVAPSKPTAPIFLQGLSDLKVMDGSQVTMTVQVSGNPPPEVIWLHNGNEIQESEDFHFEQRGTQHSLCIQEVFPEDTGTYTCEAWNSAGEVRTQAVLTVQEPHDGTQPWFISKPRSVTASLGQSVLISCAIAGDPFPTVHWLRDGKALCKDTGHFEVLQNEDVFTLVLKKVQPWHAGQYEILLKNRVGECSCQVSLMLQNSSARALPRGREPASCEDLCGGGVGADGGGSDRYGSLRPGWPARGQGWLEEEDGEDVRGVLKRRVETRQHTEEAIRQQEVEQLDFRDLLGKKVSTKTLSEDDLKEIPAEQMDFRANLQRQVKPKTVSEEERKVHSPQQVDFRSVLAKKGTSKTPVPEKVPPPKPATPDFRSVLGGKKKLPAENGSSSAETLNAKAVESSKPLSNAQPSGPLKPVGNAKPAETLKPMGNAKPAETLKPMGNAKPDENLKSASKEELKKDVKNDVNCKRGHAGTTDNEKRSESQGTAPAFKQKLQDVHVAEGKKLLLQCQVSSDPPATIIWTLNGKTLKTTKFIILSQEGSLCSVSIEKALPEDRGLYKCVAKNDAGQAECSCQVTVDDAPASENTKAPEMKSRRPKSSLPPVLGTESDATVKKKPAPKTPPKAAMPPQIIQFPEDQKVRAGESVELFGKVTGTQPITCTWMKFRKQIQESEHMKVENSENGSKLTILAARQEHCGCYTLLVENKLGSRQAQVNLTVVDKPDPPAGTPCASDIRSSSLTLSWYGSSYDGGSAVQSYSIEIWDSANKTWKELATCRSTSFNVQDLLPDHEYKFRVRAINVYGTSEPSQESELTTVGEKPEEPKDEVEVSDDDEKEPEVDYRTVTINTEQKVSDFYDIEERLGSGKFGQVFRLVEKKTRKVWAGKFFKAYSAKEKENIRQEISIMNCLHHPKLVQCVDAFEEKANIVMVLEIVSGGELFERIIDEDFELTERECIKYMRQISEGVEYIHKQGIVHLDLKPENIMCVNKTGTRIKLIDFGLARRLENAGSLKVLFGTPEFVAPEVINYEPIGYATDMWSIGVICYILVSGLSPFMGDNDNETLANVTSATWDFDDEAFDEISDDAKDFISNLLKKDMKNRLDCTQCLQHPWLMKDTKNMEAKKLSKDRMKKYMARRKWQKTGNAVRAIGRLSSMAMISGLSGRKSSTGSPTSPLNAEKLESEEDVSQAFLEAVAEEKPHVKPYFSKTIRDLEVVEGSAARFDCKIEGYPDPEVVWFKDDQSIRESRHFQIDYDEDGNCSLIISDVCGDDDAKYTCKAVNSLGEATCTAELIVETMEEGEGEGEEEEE
UniProt Q00536, sequence (Q00536 whole entry): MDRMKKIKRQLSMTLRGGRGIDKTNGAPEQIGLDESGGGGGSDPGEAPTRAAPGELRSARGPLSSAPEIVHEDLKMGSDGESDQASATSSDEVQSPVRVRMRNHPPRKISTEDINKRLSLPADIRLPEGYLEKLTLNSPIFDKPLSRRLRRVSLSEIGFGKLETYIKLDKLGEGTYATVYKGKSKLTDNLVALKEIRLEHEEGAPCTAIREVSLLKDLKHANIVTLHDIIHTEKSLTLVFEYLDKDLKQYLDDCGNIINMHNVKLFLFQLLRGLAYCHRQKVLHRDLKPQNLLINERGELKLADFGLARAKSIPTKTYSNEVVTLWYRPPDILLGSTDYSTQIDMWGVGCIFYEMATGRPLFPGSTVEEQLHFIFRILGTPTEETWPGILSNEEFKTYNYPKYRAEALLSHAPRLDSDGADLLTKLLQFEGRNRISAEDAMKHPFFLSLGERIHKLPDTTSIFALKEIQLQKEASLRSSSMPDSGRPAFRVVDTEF
PIM2, sequence (Q9P1W9 whole entry, looked up): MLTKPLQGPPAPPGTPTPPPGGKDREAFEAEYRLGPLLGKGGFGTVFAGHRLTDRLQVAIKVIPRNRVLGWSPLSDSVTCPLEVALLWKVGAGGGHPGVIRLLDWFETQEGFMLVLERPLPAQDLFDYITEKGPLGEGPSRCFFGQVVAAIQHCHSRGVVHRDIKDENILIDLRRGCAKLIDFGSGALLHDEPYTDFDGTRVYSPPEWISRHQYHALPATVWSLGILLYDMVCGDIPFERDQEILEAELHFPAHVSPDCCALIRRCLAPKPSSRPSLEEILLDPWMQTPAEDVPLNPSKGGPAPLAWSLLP

In the case of `C#CCNC(=O)c1cc(Nc2cc(C)[nH]n2)nc(N2CCN(Cc3ccc(S(=O)(=O)F)cc3)CC2)n1`, the pIC50 in assay [1] (cell material: Lysate mix), in assay [2] (cell material: Lysate mix), in assay [3] (cell material: Lysate mix), in assay [4] (cell material: Lysate mix), in assay [5] (cell material: Lysate mix) and in assay [6] (cell material: Lysate mix) was less than 4.52 in each case. Besides, the negative logarithm of the IC50 (pIC50) in [7] is less than 4.52; in assay [8] (cell material: Lysate mix), 5.51; in [9] (cell material: Lysate mix), 5.49; in assay [10], less than 4.52; in assay [11] (cell material: Lysate mix), less than 4.52; in assay [12] (cell material: Lysate mix) it was less than 4.52.
Take `O=C(NCCNC(=O)c1cc(Nc2cc(C3CC3)[nH]n2)nc(N2CCN(Cc3ccc(S(=O)(=O)F)cc3)CC2)n1)OC1CC/C=C/CCC1` (centres undefined): the pIC50 was 5.85 in assay [1] (cell material: Jurkat cells); less than 4.52 in assay [1] (cell material: Jurkat lysate); less than 4.52 in assay [1] (cell material: Lysate mix); less than 4.52 in assay [2] (cell material: Jurkat lysate); less than 4.52 in assay [2] (cell material: Lysate mix); 5.56 in assay [3] (cell material: Jurkat cells). In addition, the pIC50 in assay [3] (cell material: Lysate mix) is less than 4.52; in assay [4] (cell material: Jurkat cells) it was 5.19; in assay [4] (cell material: Jurkat lysate), less than 4.52; in [4] (cell material: Lysate mix), less than 4.52; in assay [5] (cell material: Jurkat cells), 5.65; in [5] (cell material: Jurkat lysate), less than 4.52. Besides, the pIC50 in [5] (cell material: Lysate mix) was less than 4.52; in assay [6] (cell material: Jurkat cells) it was 4.93; in assay [6] (cell material: Jurkat lysate), less than 4.52; in assay [6] (cell material: Lysate mix), less than 4.52; in assay [7], less than 4.52; in assay [8] (cell material: Jurkat cells), 5.92. Besides, the negative logarithm of the IC50 (pIC50) in assay [8] (cell material: Jurkat lysate) is less than 4.52; in [9] (cell material: Jurkat cells) it was 5.86; in [9] (cell material: Jurkat lysate) it was less than 4.52; in [10], less than 4.52; in [11] (cell material: Jurkat cells), 5.11; in [11] (cell material: Jurkat lysate), less than 4.52. Besides, the negative-log IC50 (pIC50) in [11] (cell material: Lysate mix) was less than 4.52; in assay [12] (cell material: Jurkat cells) it was 5.27; in assay [12] (cell material: Jurkat lysate), less than 4.52; in assay [12] (cell material: Lysate mix), less than 4.52.
Regarding `CCNC(=O)c1cc(Nc2cc(C3CC3)[nH]n2)nc(N2CCN(Cc3ccc(S(=O)(=O)F)cc3)CC2)n1`, the pIC50 in assay [1] (cell material: Lysate mix) is 5.76; in assay [2] (cell material: Lysate mix), less than 4.52; in [3] (cell material: Lysate mix), 5.46; in assay [4] (cell material: Lysate mix), less than 4.52; in assay [5] (cell material: Lysate mix), less than 4.52; in assay [6] (cell material: Lysate mix), 4.65. Moreover, the negative logarithm of the IC50 (pIC50) was less than 4.52 in assay [7]; 5.92 in [8] (cell material: Lysate mix); 6.27 in assay [9] (cell material: Lysate mix); less than 4.52 in assay [10]; 5.5 in assay [11] (cell material: Lysate mix); 5.73 in assay [12] (cell material: Lysate mix).
`Cc1cc(Nc2cc(C(=O)NCCNC(=O)OC3CC/C=C/CCC3)nc(N3CCN(Cc4ccc(S(=O)(=O)F)cc4)CC3)n2)n[nH]1` (centres undefined): the negative-log IC50 (pIC50) in assay [1] (cell material: Lysate mix), in assay [2] (cell material: Lysate mix), in assay [3] (cell material: Lysate mix), in assay [4] (cell material: Lysate mix), in assay [5] (cell material: Lysate mix) and in assay [6] (cell material: Lysate mix) was less than 4.52 each time. Moreover, the pIC50 in [7], in [8] (cell material: Lysate mix), in [9] (cell material: Lysate mix), in assay [10], in assay [11] (cell material: Lysate mix) and in assay [12] (cell material: Lysate mix) was less than 4.52 in each case.
For `CCNC(=O)c1cc(Nc2cc(C)[nH]n2)nc(N2CCN(Cc3ccc(S(=O)(=O)F)cc3)CC2)n1`, the pIC50 is 4.76 in assay [1] (cell material: Lysate mix); less than 4.52 in assay [2] (cell material: Lysate mix); less than 4.52 in assay [3] (cell material: Lysate mix); less than 4.52 in assay [4] (cell material: Lysate mix); less than 4.52 in assay [5] (cell material: Lysate mix); less than 4.52 in [6] (cell material: Lysate mix). In addition, the pIC50 in assay [7] was less than 4.52; in assay [8] (cell material: Lysate mix) it was 5.92; in assay [9] (cell material: Lysate mix), 5.63; in assay [10], less than 4.52; in [11] (cell material: Lysate mix) it was less than 4.52; in [12] (cell material: Lysate mix) it was less than 4.52.
For `C#CCNC(=O)c1cc(Nc2cc(C3CC3)[nH]n2)nc(N2CCN(Cc3ccc(S(=O)(=O)F)cc3)CC2)n1`, the pIC50 is 6.35 in [1] (cell material: Jurkat cells); 5.01 in [1] (cell material: Jurkat lysate); 5.89 in assay [1] (cell material: Lysate mix); less than 4.52 in [2] (cell material: Jurkat lysate); less than 4.52 in [2] (cell material: Lysate mix); 4.66 in assay [3] (cell material: Jurkat lysate). The negative-log IC50 (pIC50) in assay [3] (cell material: Lysate mix) is 5.7; in assay [4] (cell material: Jurkat cells), 5.53; in assay [4] (cell material: Jurkat lysate), less than 4.52; in [4] (cell material: Lysate mix), less than 4.52; in [5] (cell material: Jurkat cells) it was 5.87; in assay [5] (cell material: Jurkat lysate), less than 4.52. The pIC50 is less than 4.52 in assay [5] (cell material: Lysate mix); 5.78 in assay [6] (cell material: Jurkat cells); 4.8 in [6] (cell material: Lysate mix); less than 4.52 in assay [7]; 5.6 in assay [8] (cell material: Jurkat lysate); 6.2 in assay [8] (cell material: Lysate mix). The pIC50 in assay [9] (cell material: Jurkat cells) is 6.44; in assay [9] (cell material: Jurkat lysate), 5.88; in [9] (cell material: Lysate mix), 6.39; in assay [10], less than 4.52; in assay [11] (cell material: Jurkat cells), 6.32; in assay [11] (cell material: Jurkat lysate), 5.37. The negative logarithm of the IC50 (pIC50) in [11] (cell material: Lysate mix) was 5.7; in assay [12] (cell material: Jurkat cells) it was 6.02; in assay [12] (cell material: Jurkat lysate) it was less than 4.52; in assay [12] (cell material: Lysate mix), 5.72.

For the origin of these results see the supplement of paper PMC12076712.
